Counter-ions that a name gives are not always drawn.
Key:
5-HT1A receptors = biological target: T1, 5-HT1A receptors (Bos taurus, UniProt F6Q2H9); test: Affinity for the 5-HT1A receptor (3H-ipsapirone binding, calf hippocampus membranes)
T1 construct: measured in calf hippocampus membranes; from tissue; host or cells: calf hippocampus membranes
T1 sequence (F6Q2H9 1-422): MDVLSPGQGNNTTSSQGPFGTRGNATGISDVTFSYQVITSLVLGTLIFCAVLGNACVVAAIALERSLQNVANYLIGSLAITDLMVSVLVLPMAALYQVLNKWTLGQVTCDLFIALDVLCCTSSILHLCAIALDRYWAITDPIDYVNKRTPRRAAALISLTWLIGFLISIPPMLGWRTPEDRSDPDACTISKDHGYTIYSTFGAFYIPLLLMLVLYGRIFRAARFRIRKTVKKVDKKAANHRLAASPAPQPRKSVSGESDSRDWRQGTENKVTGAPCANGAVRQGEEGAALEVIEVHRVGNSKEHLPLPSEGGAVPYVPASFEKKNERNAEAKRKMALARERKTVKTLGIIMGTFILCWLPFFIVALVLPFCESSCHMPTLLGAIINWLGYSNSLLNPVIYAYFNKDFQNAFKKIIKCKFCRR
Description: 2.) Affinity for the 5-HT1A receptor [W. U. Dompert et al., Naunyn-Schmiedeberg's Arch Pharmacol. (1985), 328, 467-470].
In this test, the binding of ^3 H-ipsapirone to 5-HT1A receptors is measured in calf hippocampus membranes.
(§1) In the binding tests under 1) and 2), IC50 values are determined which indicate at which concentration of test substance 50% of the binding of the radioligand is displaced. Taking into account the dissociation constants and the concentration of radioligand, the inhibition constants Ki are calculated from this.

[1] = system: permanent focal cerebral ischaemia (MCA-O); test: Permanent focal cerebral ischaemia (middle cerebral artery occlusion, MCA-O) in rats; assay type: in vivo; settings: rat, continuous infusion 4 hours after occlusion, assessed 7 days after operation
Source text: Animal model: permanent focal cerebral ischaemia ("middle cerebral artery occlusion"=MCA-O). MCA occlusion in rodents is a widely accepted animal model of stroke. Reference: Bederson, J. B. et al., Stroke, 17:472-476 (1986).
In order to produce permanent focal cerebral ischaemia, the left medial cerebral artery in rats is occluded by electrocoagulation. The resulting infarct volume in cortical (subcortical) regions which are supplied by the medial cerebral artery is used as a measure of the extent of the stroke-induced neuronal damage. Administration of substance: after occlusion as a continuous i.v. infusion (4 hours) of the test substance, beginning directly after operation. The animals are sacrificed for assessment 7 days after operation.

5-HT1 receptor = test: Affinity for the 5-HT1 receptor (3H-serotonin binding, calf hippocampus membranes); settings: calf hippocampus membrane preparations
Description: as §1, with “The values indicated are data which were determined from receptor binding studies using calf hippocampus membrane preparations. The radiolabelled ligand used for this purpose was ^3 H-serotonin. In” for “In”

Ki (5-HT1A receptors) [nM]	Ki (5-HT1 receptor) [nM]	SMILES	% Reduction of the infarct volume ([1]; 0.001 mg/kg i.v.) [%]	% Reduction of the infarct volume ([1]; 0.01 mg/kg i.v.) [%]	% Reduction of the infarct volume ([1]; 0.1 mg/kg i.v.) [%]	% Reduction of the infarct volume ([1]; 0.003 mg/kg i.v.) [%]
1.8		CC(C)(Cl)COc1cccc2c1OC(CNCCCCN1C(=O)c3ccccc3S1(=O)=O)CC2 (single isomer, unassigned) [Example 3]	37	47		34
	0.5	CC1(C)Cc2ccc3c(c2O1)OC(CNCCCCN1C(=O)c2ccccc2S1(=O)=O)CC3 (racemic) [Example 5]				

The next lines start with the molecule.

SMILES	Ki (5-HT1A receptors) [nM]	Ki (5-HT1 receptor) [nM]	% Reduction of the infarct volume ([1]; 0.001 mg/kg i.v.) [%]	% Reduction of the infarct volume ([1]; 0.01 mg/kg i.v.) [%]	% Reduction of the infarct volume ([1]; 0.1 mg/kg i.v.) [%]	% Reduction of the infarct volume ([1]; 0.003 mg/kg i.v.) [%]
CC1(C)Cc2ccc3c(c2O1)OC(CNCCCCN1C(=O)c2ccccc2S1(=O)=O)CC3 (single isomer, unassigned) [Example 6]	0.9		41	41	38	
CC(C)Oc1cccc2c1OC(CNCCCCN1C(=O)c3ccccc3S1(=O)=O)CC2 (stereo not drawn) [Example 1, 2-(N-(4-(1,1-Dioxido-3-oxo-2,3-dihydro-benzisothiazol-2-yl)butyl)amino)methyl-8-isopropoxy-chroman oxalate]		1.1				
CC(C)(Cl)COc1cccc2c1OC(CNCCCCN1C(=O)c3ccccc3S1(=O)=O)CC2 (racemic) [Example 4]		2.8				
CC(C)Oc1cccc2c1OC(CNCCCCN1C(=O)c3ccccc3S1(=O)=O)CC2 (single isomer, unassigned) [Example 2]	0.5		36	48	32	

Reference: patent publication US5942529A, “Benzisothiazolyl-substituted aminomethylchromans” (Bayer Aktiengesellschaft, priority 1995, dated 1999)
